Results on eleven molecules are retold here after PMC8897968 (European Journal of Medicinal Chemistry, 2022).

The test system of one data set is BSR cells. As to the kind of experiment: Cytotoxicity in BSR cells. The settings on record: Cytotoxic concentration required to inhibit BSR cell growth by 50%.
Another data set relates to Huh 7 cells. As to the kind of experiment: Cytotoxicity in Huh 7 cells. The settings on record: Cytotoxic concentration required to inhibit Huh 7 cell growth by 50%.
For another data set, the system named is rabies virus CVS strain. The data set can be described thus: microbe, parasite or virus in culture. The format is cell-based. The following applies: for IC50: Lyssavirus rabies, read-out: IC50 values (anti-rabies, as worded in the text).
The test system of a further data set is pSARS-CoV-2. Type of data set: cell-based, SARS-CoV-2.
Data set [1] in a line: Cytotoxicity in Huh 7 cells. The following applies: human, Huh 7 cells.
For another data set, the system named is Kunming mice. As to the kind of experiment: Acute toxicity test in Kunming mice. The settings on record: oral, single dose, monitored for 7 days.
A further data set concerns the target rabies virus G protein (Rabies virus, UniProt O92284). As to the kind of experiment: biochemical. Type of data set: binding.

rabies virus G protein, sequence (O92284 20-459 limits assumed): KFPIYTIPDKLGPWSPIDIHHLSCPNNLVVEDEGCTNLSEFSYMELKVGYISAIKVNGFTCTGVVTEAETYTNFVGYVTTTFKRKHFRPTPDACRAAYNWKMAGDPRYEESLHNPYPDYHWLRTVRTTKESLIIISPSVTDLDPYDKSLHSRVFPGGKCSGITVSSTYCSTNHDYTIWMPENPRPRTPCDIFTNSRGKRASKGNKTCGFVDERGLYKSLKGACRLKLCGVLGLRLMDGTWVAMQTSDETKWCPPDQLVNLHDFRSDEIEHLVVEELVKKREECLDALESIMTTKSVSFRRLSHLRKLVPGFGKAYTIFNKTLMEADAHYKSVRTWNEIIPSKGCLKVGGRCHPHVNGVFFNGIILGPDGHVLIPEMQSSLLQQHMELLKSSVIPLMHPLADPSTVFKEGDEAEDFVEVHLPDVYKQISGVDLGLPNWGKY

As for “2-p-fluoroanilino-3-isopropylimino-5-p-chlorophenyl-3,5-dihydrophenazine [Compound 15a]”, the CC50 (commonly the concentration giving 50% cytotoxicity) is over 200 µM with BSR cells and 17 µM in the data set on Huh 7 cells. Further, the figures for the EC50 with rabies virus CVS strain and with pSARS-CoV-2 were 4.02 µM and 29.6 µM, respectively. In data set [1], `CC(C)/N=c1\cc2n(-c3ccc(F)cc3)c3ccccc3nc-2cc1Nc1ccc(F)cc1` [Compound 15b] had a CC50 at 24 h of over 200 µM.

As for `CC(C)/N=c1\cc2n(-c3ccccc3)c3ccccc3nc-2cc1NCc1ccccc1` [Compound 7p, 2-Benzylamino-3-isopropylimino-5-phenyl-3,5-dihydrophenazine], the IC50 (as a rule, the concentration at which inhibition is half-maximal) with rabies virus CVS strain worked out at 1.4 µM. On to `COc1ccc(-n2c3c/c(=N\C(C)C)c(Nc4cccc(F)c4)cc-3nc3ccccc32)cn1` [Compound 15f, 2-m-Fluoroanilino-3-isopropylimino-5-(6-methoxy-3-pyridinyl)-3,5-dihydro phenazine], for which the “median lethal dose (LD50)” value in the data set on Kunming mice was “over 800 mg•kg^−1”. For the same molecule, on rabies virus G protein, the affinity, expressed as Kd, was 0.28 µM. Further, the IC50 in the data set on rabies virus CVS strain is 1.45 µM. For `COc1ccc(-n2c3c/c(=N\C(C)C)c(Nc4ccc(F)cc4)cc-3nc3ccccc32)cn1` [Compound 15g, 2-p-Fluoroanilino-3-isopropylimino-5-(6-methoxy-3-pyridinyl)-3,5-dihydro phenazine], in the data set on Kunming mice, the “median lethal dose (LD50)” value was “over 800 mg•kg^−1”. Further, the IC50 in the data set with rabies virus CVS strain was found to be 1.41 µM.

As to `CC(C)/N=c1\cc2n(-c3ccc(Cl)cc3)c3ccccc3nc-2cc1Nc1ccc(OC(F)(F)F)cc1` [Compound 7i, 2-p-Trifluoromethoxyanilino-3-isopropylimino-5-p-chlorophenyl-3,5-dihydro phenazine], the IC50 in the data set on rabies virus CVS strain stood at 1.77 µM.

Turning to `CC(C)/N=c1\cc2n(-c3ccccc3)c3ccccc3nc-2cc1NCc1ccc(F)cc1` [Compound 7q, 2-p-Fluorobenzylamino-3-isopropylimino-5-phenyl-3,5-dihydrophenazine], the IC50 in the data set on rabies virus CVS strain was 1.9 µM. On to `CC(C)/N=c1\cc2n(-c3ccccc3)c3ccccc3nc-2cc1Nc1ccc(Cl)cc1` [Compound 7l], for which the IC50 in the data set with rabies virus CVS strain is 1.4 µM. Same read-out and setting: as for `CC(C)/N=c1\cc2n(-c3ccc(Cl)cc3)c3ccccc3nc-2cc1NCc1ccc(Cl)cc1` [Compound 7k, 2-p-Chlorobenzylamino-3-isopropylimino-5-p-chlorophenyl-3,5-dihydrophena zine], the figure is 0.76 µM. In the data set on BSR cells, “2-Benzyl-3-imino-5-phenyl-3,5-dihydrophenazine [Compound 6l]” showed a CC50 of 35.4 µM. For the same molecule, the EC50 (as a rule, the concentration needed to bring the measured effect to its halfway point) in the data set with rabies virus CVS strain stood at 35.4 µM. For `CC(C)/N=c1\cc2n(-c3ccc(Cl)cc3)c3ccccc3nc-2cc1Nc1ccc(Cl)cc1` [Compound 1, clofazimine, reference compound], binding at rabies virus G protein was characterised by a dissociation constant (Kd) of 0.73 µM.
